Measured values taken from ChEMBL document CHEMBL5584207, “Discovery of novel indole derivatives as potent and selective inhibitors of proMMP-9 activation” (Bioorg Med Chem Lett, 2024).
In brackets after ≈: the same amount, converted by molar mass. Activity calls are given as the source filed them. The rule behind the calls is not given here.

Assays:
[1] = molecular target: Matrix metalloproteinase-9 (Homo sapiens, UniProt P14780); assay: Inhibition of proMMP-9 (unknown origin)
[2] = molecular target: Stromelysin-1 (Homo sapiens) (UniProt P08254); assay: Inhibition of MMP-3 catalytic activity (unknown origin)
[3] = Solubility of compound; type: physicochemical
[4] = molecular target: 72 kDa type IV collagenase (Homo sapiens, UniProt P08253); assay: Inhibition of proMMP-2 (unknown origin)
Collagenase 3 = Collagenase 3 (Homo sapiens, UniProt P45452); assay: Inhibition of proMMP-13 (unknown origin)

Matrix metalloproteinase-9, sequence (P14780 whole entry): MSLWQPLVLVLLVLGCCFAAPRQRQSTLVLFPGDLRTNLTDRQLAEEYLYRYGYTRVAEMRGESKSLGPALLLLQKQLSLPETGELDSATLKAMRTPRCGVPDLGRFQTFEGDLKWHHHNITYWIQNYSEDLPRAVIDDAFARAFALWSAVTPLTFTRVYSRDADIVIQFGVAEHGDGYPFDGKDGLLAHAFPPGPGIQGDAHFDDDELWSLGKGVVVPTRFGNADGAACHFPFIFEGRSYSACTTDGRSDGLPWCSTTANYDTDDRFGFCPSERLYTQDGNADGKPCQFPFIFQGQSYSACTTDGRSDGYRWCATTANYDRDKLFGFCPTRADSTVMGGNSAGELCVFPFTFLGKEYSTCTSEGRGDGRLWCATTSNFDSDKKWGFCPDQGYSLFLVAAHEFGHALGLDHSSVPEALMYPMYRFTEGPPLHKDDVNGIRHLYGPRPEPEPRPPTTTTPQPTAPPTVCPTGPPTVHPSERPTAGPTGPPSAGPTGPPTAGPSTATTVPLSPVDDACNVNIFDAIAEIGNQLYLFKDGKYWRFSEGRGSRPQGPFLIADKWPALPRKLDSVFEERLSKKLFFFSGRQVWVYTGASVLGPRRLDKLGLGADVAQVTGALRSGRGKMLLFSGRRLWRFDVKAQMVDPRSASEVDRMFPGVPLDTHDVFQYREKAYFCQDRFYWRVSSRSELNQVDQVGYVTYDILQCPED
Stromelysin-1 (Homo sapiens), sequence (P08254 100-477 limits assumed): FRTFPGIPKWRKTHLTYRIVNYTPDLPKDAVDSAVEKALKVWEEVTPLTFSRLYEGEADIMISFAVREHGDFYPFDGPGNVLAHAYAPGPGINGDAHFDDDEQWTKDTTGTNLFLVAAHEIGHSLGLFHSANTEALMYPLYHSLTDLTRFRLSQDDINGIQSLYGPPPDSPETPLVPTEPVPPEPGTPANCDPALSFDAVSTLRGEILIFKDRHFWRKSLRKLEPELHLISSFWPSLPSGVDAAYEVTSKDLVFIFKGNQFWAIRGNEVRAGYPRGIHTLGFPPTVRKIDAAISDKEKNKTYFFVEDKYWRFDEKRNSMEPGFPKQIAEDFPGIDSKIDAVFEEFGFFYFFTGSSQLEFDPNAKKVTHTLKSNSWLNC
72 kDa type IV collagenase, sequence (P08253 whole entry): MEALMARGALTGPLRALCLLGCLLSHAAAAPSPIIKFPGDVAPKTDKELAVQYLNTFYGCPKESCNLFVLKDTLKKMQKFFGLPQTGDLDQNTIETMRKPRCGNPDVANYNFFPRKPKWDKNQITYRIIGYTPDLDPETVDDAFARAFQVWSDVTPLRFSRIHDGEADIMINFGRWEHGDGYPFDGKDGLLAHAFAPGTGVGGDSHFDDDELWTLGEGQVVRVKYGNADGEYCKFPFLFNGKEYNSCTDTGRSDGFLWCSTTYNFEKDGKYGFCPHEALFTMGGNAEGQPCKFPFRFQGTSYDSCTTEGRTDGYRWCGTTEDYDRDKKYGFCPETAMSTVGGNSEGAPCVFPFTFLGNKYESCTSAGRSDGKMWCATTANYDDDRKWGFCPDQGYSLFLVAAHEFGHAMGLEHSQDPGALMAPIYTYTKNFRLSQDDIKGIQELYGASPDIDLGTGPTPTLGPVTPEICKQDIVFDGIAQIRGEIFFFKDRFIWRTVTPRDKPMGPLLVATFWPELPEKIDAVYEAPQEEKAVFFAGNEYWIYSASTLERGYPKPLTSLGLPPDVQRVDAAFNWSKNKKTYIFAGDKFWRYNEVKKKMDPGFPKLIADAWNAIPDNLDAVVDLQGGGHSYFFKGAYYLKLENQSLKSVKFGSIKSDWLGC

Compound	IC50 [1] [µM]	inhibition [2]	solubility [3] [µg/mL]	IC50 [4] [µM]	IC50 (Collagenase 3) [µM]
O=C(c1cc2ccc(C3CC3)cc2[nH]1)N1CCc2ocnc2C1	1.1				
CCc1cccc2c(C(=O)N3CCc4ocnc4C3)n[nH]c12	8.5	inactive			
O=C(c1cc2ccc(C3CC3)cc2[nH]1)N1CCc2cnccc2C1	> 50				
CCc1ccc2cc(C(=O)N3CCCc4cnccc4C3)[nH]c2c1	0.12		0.8 (≈ 2.5 µM)		
O=C(c1cc2ccc(C3CCC3)cc2[nH]1)N1CCCc2cnccc2C1	0.12		0.4 (≈ 1.16 µM)		
O=C(c1cc2ccc(C3CC3)cc2[nH]1)N1CCCc2cnccc2C1	0.081		8.6 (≈ 25.9 µM)		
CNc1cc(F)cc2cc(C(=O)N3CCc4ccc(C(=O)NCCN5CCCC5)cc4C3)[nH]c12	2.6	inactive			
C[C@]1(O)C[C@@H](c2ccc3cc(C(=O)N4CCCc5cnccc5C4)[nH]c3c2)C1	0.16		3 (≈ 7.99 µM)		
O=C(c1cc2ccc(C3CC3)cc2[nH]1)N1CCc2ccccc2C1	> 50				
CC(C)(O)c1ccc2cc(C(=O)N3CCCc4cnccc4C3)[nH]c2c1	0.58		> 35		
CC(C)(C)c1ccc2cc(C(=O)N3CCCc4cnccc4C3)[nH]c2c1	0.11		1.3 (≈ 3.74 µM)		
O=C(c1cc2ccc(CCO)cc2[nH]1)N1CCCc2cnccc2C1	1.1		> 33		
CC(C)(O)c1ccc2cc(C(=O)N3CCCc4cnc(N)c(F)c4C3)[nH]c2c1	0.044			> 30	> 30
O=C(NCCN1CCCC1)c1ccc2c(c1)CN(C(=O)c1cc3c(F)cc(C4CC4)cc3[nH]1)CC2	1				
